Data reported in patent publication US20120128654A1, “Allantoin Administration for the Treatment of Neurodegenerative Disease and Neurotrauma” (UNIVERSITY OF CINCINNATI, priority 2009, published 2012).

Key:
[1] = Plasma purine levels following subcutaneous purine and KO pellet administration; format: in vivo, Sprague Dawley rats; conditions: rats, four days following pellet implantation; for plasma allantoin levels: matrix-driven s.c. pellets, vs control
Text: Continuous s.c. delivery of INO, KO and ALL was achieved by implanting matrix-driven pellets into the s.c. space. Animals were anesthetized with isofluorane and prepared for surgery using sterile procedures. A small incision was made posterior to the scapula and the pellet was placed in the subscapular space contralateral to the incision. This placement technique prevents migration of the pellet towards the incision, thereby reducing the incidents of rejection. Finally, the incision was closed using aseptic procedures. To determine the roles of UA and allantoin in inosine-mediated neuroprotection, animals were treated with the urate oxidase inhibitor KO. This approach has been widely used to prevent the enzymatic metabolism of UA to allantoin in other rodent models of disease.
For HPLC analysis of plasma inosine, hypoxanthine, xanthine and UA, an antioxidant solution was added to an equal volume of plasma and samples were centrifuged at 14,000 g for 20 minutes at 4° C. The supernatant was collected for HPLC analysis. Samples were separated on a Hypersil ODS column (Thermo-Fisher Scientific, Waltham, Mass.). Compounds were detected using a Photodiode Array Detector attached to a Waters 2695 Solvent Delivery System under the following conditions: the mobile phase consisted of 0.5% KH2PO4 at a pH of 4.6. Unknown samples were quantified against a 6-point standard curve with a minimum r^2 of 0.97. Quality control samples were interspersed with each run to ensure HPLC calibration. Data are expressed in μg/ml.
For plasma analysis of allantoin venous blood was obtained from the right ventricle (rat) and collected from repeated blood draws (African green monkey). Blood was immediately centrifuged at 10,500 rpms (this needs to be in G) for 5 minutes. Supernatant was then removed and analyzed for allantoin. Enzymatic detection of allantoin was performed as previously described with the exception of reaction volumes being adjusted to accommodate the use of a 96 well microtiter plate (Muratsubaki et al., Enzymatic assay of allantoin in serum using allantoinase and allantoate amidohydrolase, Anal. Biochem. 359:161-166 (2006)). […] Following a 15 minute incubation, absorbance was read on a spectrometer at 340 nm. […] Following a 10 minute incubation absorbance was once again measured at 340 nm. The final absorbance was subtracted from the absorbance following the addition of allantoinase. […]
To determine the impact of peripheral administration of purines on plasma purine levels, animals were divided into 5 groups INO (n=12), INO/KO (n=12), ALL (n=12), KO (n=12), and sham pellet implantation. […] Plasma ALL levels were determined enzymatically.

[2] = Oral allantoin administration, plasma allantoin levels in monkeys; format: in vivo, African green monkey
Experimental: To determine whether oral allantoin administration could increase plasma levels of allantoin in non-human primates, African green monkeys were fed allantoin (n=4). All monkeys were initially fed 26 mg/kg/day for 1 week, after which the allantoin concentration was increased to a level of 52 mg/kg/day for an additional week. The allantoin was mixed to the appropriate concentration in fruit juice and given to the monkeys to drink. For plasma analysis of allantoin venous blood was obtained from the right ventricle (rat) and collected from repeated blood draws (African green monkey). Blood was immediately centrifuged at 10,500 rpms (this needs to be in G) for 5 minutes. Supernatant was then removed and analyzed for allantoin. Enzymatic detection of allantoin was performed as previously described with the exception of reaction volumes being adjusted to accommodate the use of a 96 well microtiter plate (Muratsubaki et al., Enzymatic assay of allantoin in serum using allantoinase and allantoate amidohydrolase, Anal. Biochem. 359:161-166 (2006)). […] Following a 15 minute incubation, absorbance was read on a spectrometer at 340 nm. […] Following a 10 minute incubation absorbance was once again measured at 340 nm. The final absorbance was subtracted from the absorbance following the addition of allantoinase. […] Allantoin levels in plasma were determined utilizing the enzymatic detection assay. […]

[3] = test system: retinal ganglion cells; conditions: repeated i.p. every eight hours, optical nerve transection, adult rats; cited from earlier work
[4] = test system: cortex and hippocampus apoptosis; conditions: twice daily i.p., neonatal MCA occlusion; cited from earlier work

Structure (SMILES) | plasma allantoin levels [1] | plasma allantoin levels ([1]; listed as Allantoin) | plasma allantoin levels ([2]; African green monkey, oral, after one week at 52 mg/kg/day (following 1 week at 26 mg/kg/day), vs baseline, trough) | negative health consequences ([2]; monkeys, oral allantoin 26 then 52 mg/kg/day, 1 week each) | sparing of retinal ganglion cells [3] | Cytochrome C expression in the cortex and hippocampus [4] | TUNEL staining in the cortex and hippocampus [4] | plasma levels of any other purines ([1]; s.c. pellets)
NC(=O)NC1NC(=O)NC1=O (stereo not drawn) [allantoin] | increase in plasma allantoin similar to what was seen in the inosine only group | significantly increased | tripling | Neither the rats nor the monkeys exhibited any obvious negative health consequences | – | – | – | –
OC[C@H]1O[C@@H](n2cnc3c(O)ncnc32)[C@H](O)[C@@H]1O [inosine] | significantly increased | – | – | – | significant sparing | decreased | decreased | without affecting
